Several values for one entry are separate records, joined by “and”; a condition that tells them apart may be missing. Equal values may be shown once.
Tested on: GK rats
Experiment: GK rat chronic efficacy (28 days: glucose, food intake, body weight, GLP-1, GIP, PYY, insulin, glucagon)
Assay type: in vivo
Set-up: Food Intake Over Time (Fig 3C) / Total Body Weight Change Over Time / Active GLP-1 Levels Over Time: unit not given here
Conditions: for Total Body Weight Change Over Time / Active GLP-1 Levels Over Time / GIP Levels Over Time / PYY Levels Over Time / Plasma Insulin Over Time: GK rats
Protocol: At the start of the study, fed (ambient) blood glucose was measured via glucometer at 1 h post lights on, and animals were selected and sorted into treatment groups based on ambient glucose (n = 10/ GK group, n = 6 WKY control). Blood for baseline incretin measurements was collected in the PM via tail vein. Rats were dosed via oral gavage (PO) at a volume of 5 ml/kg daily at approximately 12:30 PM with either vehicle (0.5% methylcellulose), AP1 at 30 mg/kg, or AP3 at 30 mg/kg. MK-8666, a GPR40 partial agonist synthesized at Merck & Co., Inc., Kenilworth, NJ USA [13], at 30 mg/kg was administered in feed (Research Diets, New Brunswick, NJ) and provided ad lib. All compounds were administered to achieve maximal efficacious exposures determined in acute efficacy studies similar to those acute studies described above. In brief, partial agonists and AgoPAMs were titrated in the acute GK rat experiment described above and the exposure associated with maximal efficacy in glucose lowering was noted. Partial agonists and AgoPAMs were then dosed to maintain those exposures up to 24h post dose. […] Rats from this group and the WKY controls were administered vehicle PO when the vehicle, AP1, and AP3 groups were treated. Fed blood glucose, food intake, and body weights were determined on days 10, 17, 23, and 28 of study at 2 h post lights on. Immediately after these measures were taken on days 10, 17, 23, and 28, food was removed. After 5h of fasting, animals were dosed with vehicle or compound and allowed to rest for an additional hour. Glucose, GLP-1, GIP, and PYY were measured after 6h of fasting at 1 hr post dose. Fed blood glucose is described by animals having had ad libidum access to feed up till the time of sampling and occurred at 2h post-lights on where rats were nearing the end of their nocturnal feeding cycle. Fasted blood glucose is described by blood glucose sampled after 6h of fasting where food was removed at 2h post lights on. Please note that the fasted sample was taken 1h post oral dosing. On day 10, blood was collected from the tail vein (20 μl) after morning glucose measures and after 6 hour fast from a subset of n = 3 rats per treatment group to determine the fed and fasted exposure of the compounds in circulation. The blood was stored at 4°C in 0.1 M sodium citrate for subsequent analysis of drug exposure.
Blood for insulin, glucagon, GLP-1, GIP, and PYY measurements was collected into K2EDTA Microtainer tubes (BD, Franklin Lakes, NJ) pre-treated with DPP4 inhibitor (Millipore, Billerica, MA) and cOmplete™ Protease Inhibitor Cocktail Tablets (Roche Diagnostics, Indianapolis, IN). Tubes were centrifuged for 10 minutes at 5000 RPM, and plasma was aliquotted for analysis. Plasma insulin levels were measured via EIA (Mesoscale Discovery ELISA Kit, Gaithersburg MD). Rat plasma total GLP-1 was measured using Total GLP-1 (ver.2) Assay Kit (Cat#: K150JVC). The measurement of active GLP-1 was carried out in a similar manner as that described for total GLP-1 assay with the exception that MSD Active GLP-1 (ver. 2) assay kit (Cat# K150JWC) was used. Rat plasma glucagon was measured using an in-house glucagon assay developed as a MSD format sandwich immunoassay (Merck & Co., Inc., MRL, Kenilworth, NJ USA). The antibody specificity was cross validated via mass- spec using procedures described in Lee et al. Briefly, MSD Streptavidin Gold plates were coated with 2 μg/ml biotin mouse monoclonal antibody generated to glucagon. Test samples were added to the plates and a separate Sulfo- tagged monoclonal antibody was used to detect the captured glucagon protein (2 μg/ml). The ELISA was carried out in the standard reagents in the MSD format. The plate was read on the SECTOR Imager 6000 Reader. Metabolic hormones GIP (Gastric Inhibitory Polypeptide) and PYY (Peptide YY) were measured in rat plasma using the Rat Metabolic Magnetic Bead Panel (EMD Millipore, Billerica, MA). The assay was performed according to manufacturer protocol. […]

[1] = 30 mpk, Day 0, individual animals (Fig 3D)
[2] = 30 mpk, Day 0, individual animals (Fig 4B), 30 mg/kg
[3] = 30 mpk, Day 0, individual animals (Fig 5A), 30 mg/kg
[4] = 30 mpk, Day 10, individual animals (Fig 3D), 30 mg/kg
[5] = 30 mpk, Day 10, individual animals (Fig 4B), 30 mg/kg
[6] = 30 mpk, Day 10, individual animals (Fig 4C), 30 mg/kg, in pg/mL (unit assumed)
[7] = 30 mpk, Day 10, individual animals (Fig 4D), 30 mg/kg, in pg/mL (unit assumed)
[8] = 30 mpk, Day 10, individual animals (Fig 5A), 30 mg/kg
[9] = 30 mpk, Day 17, individual animals (Fig 3D), 30 mg/kg
[10] = 30 mpk, Day 17, individual animals (Fig 4B), 30 mg/kg
[11] = 30 mpk, Day 17, individual animals (Fig 4C), 30 mg/kg, in pg/mL (unit assumed)
[12] = 30 mpk, Day 17, individual animals (Fig 4D), 30 mg/kg, in pg/mL (unit assumed)
[13] = 30 mpk, Day 17, individual animals (Fig 5A), 30 mg/kg
[14] = 30 mpk, Day 23, individual animals (Fig 3D), 30 mg/kg
[15] = 30 mpk, Day 28, individual animals (Fig 3D), 30 mg/kg
[16] = 30 mpk, Day 28, individual animals (Fig 4B), 30 mg/kg
[17] = 30 mpk, Day 28, individual animals (Fig 4C), 30 mg/kg, in pg/mL (unit assumed)
[18] = 30 mpk, Day 28, individual animals (Fig 4D), 30 mg/kg, in pg/mL (unit assumed)
[19] = 30 mpk, Day 28, individual animals (Fig 5A), 30 mg/kg

| SMILES | Food Intake Over Time (Fig 3C) (30 mpk, Day 10) | Food Intake Over Time (Fig 3C) (30 mpk, Day 17) | Food Intake Over Time (Fig 3C) (30 mpk, Day 23) | Food Intake Over Time (Fig 3C) (30 mpk, Day 28) | Total Body Weight Change Over Time [1] | Active GLP-1 Levels Over Time [2] | Plasma Insulin Over Time [3] | Total Body Weight Change Over Time [4] | Active GLP-1 Levels Over Time [5] | GIP Levels Over Time [6] | PYY Levels Over Time [7] | Plasma Insulin Over Time [8] | Total Body Weight Change Over Time [9] | Active GLP-1 Levels Over Time [10] | GIP Levels Over Time [11] | PYY Levels Over Time [12] | Plasma Insulin Over Time [13] | Total Body Weight Change Over Time [14] | Total Body Weight Change Over Time [15] | Active GLP-1 Levels Over Time [16] | further results |
| --- | --- | --- | --- | --- | --- | --- | --- | --- | --- | --- | --- | --- | --- | --- | --- | --- | --- | --- | --- | --- | --- |
| COc1ccc(F)c(-c2ccc([C@@H]3CCc4ccc([C@H](C5CC5)[C@H](C)C(=O)O)cc4O3)cc2)c1 [AP1] | 14.85 and 15.61 and 15.57 and 15.255 and 16.22 | 15.5286 and 15.8857 and 16.0214 and 17.2929 and 17.7357 | 16.8417 and 19.1417 and 18.7583 and 18.725 and 18.4 | 16.96 and 17.9 and 19.14 and 19.07 and 19.25 | 0 | 1.001 and 1.9298 and 1.3237 and 1.012 and 1.8577 and 2.191 and 1.713 and 1.556 and 0.8866 and 1.073 | 1.323 ng/mL and 1.278 ng/mL and 2.387 ng/mL and 1.318 ng/mL and 1.715 ng/mL and 1.561 ng/mL and 2.638 ng/mL and 2.341 ng/mL and 1.122 ng/mL and 2.349 ng/mL | 10 and 3 (2×) and 13 and 6 and 2 (3×) and -13 and 5 | 10.3955 and 6.299 and 7.593 and 12.0213 and 6.042 and 7.2 and 9.814 and 9.197 and 8.5449 and 7.4703 | 505.7 and 493.84 and 467.75 and 217.82 and 519.4 and 141.67 and 384.6 and 413 and 296.23 and 81.09 | 253.19 and 328.35 and 279.77 and 271.66 and 270.68 and 232.37 and 216.99 and 227.15 and 181.2 and 198.89 | 1.155 ng/mL and 0.724 ng/mL and 1.551 ng/mL and 0.8718 ng/mL and 1.112 ng/mL and 0.8329 ng/mL and 1.613 ng/mL and 0.7139 ng/mL and 1.088 ng/mL and 1.543 ng/mL | 18 (2×) and 8 and 24 and 16 and 0 and 7 and -9 and 10 and 9 | 8.6 and 3.38 and 5.23 and 6.69 and 6.32 and 4.97 and 3.57 and 4.69 and 6.47 and 5.55 | 378.278 and 410.03 and 370.39 and 471.66 and 268.89 and 337.14 and 352.79 and 447.92 and 402.03 | 228.528 and 168.33 and 149.79 and 211.65 and 178.66 and 141.57 and 165.72 and 207.01 and 161.08 | 1.312 ng/mL and 1.435 ng/mL and 1.262 ng/mL and 0.9925 ng/mL and 0.7824 ng/mL and 0.7213 ng/mL and 1.004 ng/mL and 1.148 ng/mL and 1.876 ng/mL and 2.528 ng/mL | 24 and 11 and 37 and 25 and 27 and 22 and 16 and -6 and 9 and 12 | 32 and 14 and 36 and 27 and 34 and 30 and 23 and 3 and 20 and 21 | 4.803 and 5.789 and 8.538 and 7.972 and 5.7178 and 6.58 and 6.497 and 8.013 and 7.134 and 7.267 | Fed glucose on day 28 (Fig 3B) (30 mpk, day 28, fed, individual animals): 126 and 113 and 121 and 107 and 114 and 98 and 108 and 105 and 131; fed blood glucose vs partial agonist MK-8666 (GK rat, 30 mg/kg, day 28): significantly reduced; GIP Levels Over Time (30 mpk, Day 0, individual animals (Fig 4C), 30 mg/kg, in pg/mL (unit assumed)): 80.27 and 43.35 and 55.2 and 66.33 and 82.49 and 41.1 and 77.69 and 54.81 and 38.69 and 31.07; PYY Levels Over Time (30 mpk, Day 0, individual animals (Fig 4D), 30 mg/kg): 60.82 and 59.71 and 48.43 and 38.89 and 91.83 and 69.38 and 126.38 and 46.38 (2×) and 80.42; GIP Levels Over Time [17]: 265.13 and 306.48 and 225.82 and 160.64 and 220.15 and 277.09 and 298.29 and 238.76 and 210.52 and 175.96; PYY Levels Over Time [18]: 152.15 and 162.1 and 214.06 and 98.83 and 138.17 and 173.94 and 241.37 and 220.84 and 169.14 and 119.76; Plasma Insulin Over Time [19]: 1.27 ng/mL and 1.377 ng/mL and 1.276 ng/mL and 0.4335 ng/mL and 1.675 ng/mL and 1.248 ng/mL and 2.339 ng/mL and 0.9305 ng/mL and 0.8869 ng/mL and 1.165 ng/mL |
| C[C@H](C(=O)O)[C@H](c1ccc2c(c1)O[C@H](C1CN(Cc3cc(C(F)(F)F)ccc3C(F)(F)F)C1)CC2)C1CC1 [AP3] | 15.815 and 14.78 and 14.855 and 15.07 and 14.37 | 16.6286 and 16.6643 and 16.8143 and 16.8286 and 16.8071 | 18.5083 and 18.3917 and 17.85 and 19.125 and 17.525 | 17.91 and 18.83 and 18.78 and 18.96 and 19.28 | 0 | 1.077 and 2.563 and 1.567 and 0.8713 and 1.148 and 1.431 and 1.186 and 1.3237 and 1.438 and 1.6108 | 1.29 ng/mL and 1.017 ng/mL and 1.844 ng/mL and 1.516 ng/mL and 2.832 ng/mL and 2.437 ng/mL and 2.602 ng/mL and 2.286 ng/mL and 2.384 ng/mL and 3.155 ng/mL | 11 and 17 and 1 (4×) and 8 and 2 and -5 and -10 | 10.2264 and 10.1136 and 9.093 and 7.341 and 9.911 and 6.136 and 9.947 and 8.858 and 9.564 and 4.836 | 131.59 and 538.63 and 268.56 and 356.56 and 280.21 and 297.28 and 251.81 and 343.6 and 366.22 and 226.85 | 327.63 and 434.04 and 220.17 and 263.06 and 264.64 and 198.53 and 67.33 and 282.5 and 263.78 and 239.29 | 0.805 ng/mL and 1.032 ng/mL and 1.336 ng/mL and 1.205 ng/mL and 1.609 ng/mL and 1.271 ng/mL and 0.3056 ng/mL and 1.028 ng/mL and 1.285 ng/mL and 1.24 ng/mL | 17 and 22 and 6 (2×) and 19 and 5 and 10 and 7 and 3 and 4 | 8.7 and 6.18 and 9.28 and 4.41 and 6.22 and 9.2 and 7.03 and 4.78 and 4.82 and 5.22 | 453.42 and 366.18 and 475.48 and 267.46 and 451.8 and 353.69 and 400.36 and 407.49 and 350.93 | 179 and 263.66 and 236.63 and 203.98 and 272.19 and 278.33 and 130.51 and 189.28 and 188.49 | 0.5609 ng/mL and 0.9183 ng/mL and 0.2807 ng/mL and 1.641 ng/mL and 1.961 ng/mL and 1.708 ng/mL and 1.453 ng/mL and 0.6985 ng/mL and 1.1926 ng/mL and 1.855 ng/mL | 28 and 34 and 22 and 15 and 18 and 7 and 14 and 17 and 6 and 4 | 30 and 36 and 25 and 20 and 21 and 10 and 19 and 22 and 14 (2×) | 7.945 and 6.4879 and 5.324 and 10.6145 and 8.6355 and 6.965 and 4.915 and 7.012 and 6.997 and 8.043 | GIP Levels Over Time (30 mpk, Day 0, individual animals (Fig 4C), 30 mg/kg): 64.6 and 61.42 and 49.69 and 65.31 and 46.23 (2×) and 37.69 and 48.72 and 40.59 and 29.52; PYY Levels Over Time (30 mpk, Day 0, individual animals (Fig 4D), 30 mg/kg, in pg/mL (unit assumed)): 45.68 and 75.54 and 74.62 and 61.64 and 36.39 and 74.15 and 136.82 and 43.52 and 46.38 and 67.65; GIP Levels Over Time [17]: 257.43 and 223.283 and 216.92 and 196.33 and 188.58 and 171.99 and 248.64 and 189.72 and 162.6 and 177.95; PYY Levels Over Time [18]: 237.97 and 76.0833 and 195.93 and 219.09 and 189.97 and 176.63 and 223.29 and 158.15 and 160.92 and 153.75; Plasma Insulin Over Time [19]: 0.8153 ng/mL and 0.3115 ng/mL and 0.9427 ng/mL and 0.8881 ng/mL and 1.431 ng/mL and 0.8809 ng/mL and 1.428 ng/mL and 1.376 ng/mL and 1.352 ng/mL and 1.27 ng/mL |
